Test: Stability test: crystals stored at 60° C. for three months, amount of decomposition products
Assay type: physicochemical
Experimental: Suplatast tosilate crystals of the present invention produced in Examples 3 and 4 (Lots A and B) and first-form suplatast tosilate crystals produced through the method described in Japanese Patent Publication (kokoku) No. 1991-70698 (Lots C, D, and E) (1.0 g for each Lot) were stored at 60° C. for three months for stability measurement. For reference, second-form suplatast tosilate crystals produced through the method described in JP-A-1995-252213 (Lot F) and third-form suplatast tosilate crystals produced through the method described in WO 02/083633 (Lot G) were subjected to stability measurement in a manner similar to that described above.
As is clear from Table 1, all the first-form crystals produced through the conventionally known production method undergo decomposition, but the crystals produced through the production method of the present invention undergo virtually no decomposition and are stable.

## CCOCC(O)COc1ccc(NC(=O)CC[S+](C)C)cc1.Cc1ccc(S(=O)(=O)[O-])cc1 (racemic) [Invention crystals (Ex. 4), (±)-[2-[4-(3-ethoxy-2-hydroxypropoxy)phenylcarbamoyl]ethyl]dimethylsulfonium p-toluenesulfonate]
1 month
  Amount (%) of suplatast tosilate decomposition products produced at 60° C.: Decomposition product 2: 0.0%
  Amount (%) of suplatast tosilate decomposition products produced at 60° C.: Decomposition product 3: 0.0%
1 month, p-toluenesulfonate
  Amount (%) of suplatast tosilate decomposition products produced at 60° C.: Decomposition product 1: 0.0%
  Amount (%) of suplatast tosilate decomposition products produced at 60° C.: Total amount of decomposition products: 0.0%
2 months, p-toluenesulfonate
  Amount (%) of suplatast tosilate decomposition products produced at 60° C.: Decomposition product 1: 0.0%
  Amount (%) of suplatast tosilate decomposition products produced at 60° C.: Decomposition product 2: 0.0%
  Amount (%) of suplatast tosilate decomposition products produced at 60° C.: Decomposition product 3: 0.0%
  Amount (%) of suplatast tosilate decomposition products produced at 60° C.: Total amount of decomposition products: 0.0%
3 months, p-toluenesulfonate
  Amount (%) of suplatast tosilate decomposition products produced at 60° C.: Decomposition product 1: 0.0%
  Amount (%) of suplatast tosilate decomposition products produced at 60° C.: Decomposition product 2: 0.0%
  Amount (%) of suplatast tosilate decomposition products produced at 60° C.: Decomposition product 3: 0.0%
  Amount (%) of suplatast tosilate decomposition products produced at 60° C.: Total amount of decomposition products: 0.0%

## CCOCC(O)COc1ccc(NC(=O)CC[S+](C)C)cc1.Cc1ccc(S(=O)(=O)[O-])cc1 (racemic) [First-form crystals Lot C, (±)-[2-[4-(3-ethoxy-2-hydroxypropoxy)phenylcarbamoyl]ethyl]dimethylsulfonium p-toluenesulfonate]
1 month
  Amount (%) of suplatast tosilate decomposition products produced at 60° C.: Decomposition product 2: 0.0%
  Amount (%) of suplatast tosilate decomposition products produced at 60° C.: Decomposition product 3: 0.0%
1 month, p-toluenesulfonate
  Amount (%) of suplatast tosilate decomposition products produced at 60° C.: Decomposition product 1: 0.1%
  Amount (%) of suplatast tosilate decomposition products produced at 60° C.: Total amount of decomposition products: 0.1%
2 months, p-toluenesulfonate
  Amount (%) of suplatast tosilate decomposition products produced at 60° C.: Decomposition product 1: 0.6%
  Amount (%) of suplatast tosilate decomposition products produced at 60° C.: Decomposition product 2: 0.3%
  Amount (%) of suplatast tosilate decomposition products produced at 60° C.: Decomposition product 3: 0.2%
  Amount (%) of suplatast tosilate decomposition products produced at 60° C.: Total amount of decomposition products: 1.1%
3 months, p-toluenesulfonate
  Amount (%) of suplatast tosilate decomposition products produced at 60° C.: Decomposition product 1: 1.3%
  Amount (%) of suplatast tosilate decomposition products produced at 60° C.: Decomposition product 2: 0.4%
  Amount (%) of suplatast tosilate decomposition products produced at 60° C.: Decomposition product 3: 0.4%
  Amount (%) of suplatast tosilate decomposition products produced at 60° C.: Total amount of decomposition products: 2.1%

## CCOCC(O)COc1ccc(NC(=O)CC[S+](C)C)cc1.Cc1ccc(S(=O)(=O)[O-])cc1 (racemic) [First-form crystals Lot D, (±)-[2-[4-(3-ethoxy-2-hydroxypropoxy)phenylcarbamoyl]ethyl]dimethylsulfonium p-toluenesulfonate]
1 month
  Amount (%) of suplatast tosilate decomposition products produced at 60° C.: Decomposition product 2: 0.0%
  Amount (%) of suplatast tosilate decomposition products produced at 60° C.: Decomposition product 3: 0.0%
1 month, p-toluenesulfonate
  Amount (%) of suplatast tosilate decomposition products produced at 60° C.: Decomposition product 1: 0.0%
  Amount (%) of suplatast tosilate decomposition products produced at 60° C.: Total amount of decomposition products: 0.0%
2 months, p-toluenesulfonate
  Amount (%) of suplatast tosilate decomposition products produced at 60° C.: Decomposition product 1: 0.4%
  Amount (%) of suplatast tosilate decomposition products produced at 60° C.: Decomposition product 2: 0.2%
  Amount (%) of suplatast tosilate decomposition products produced at 60° C.: Decomposition product 3: 0.1%
  Amount (%) of suplatast tosilate decomposition products produced at 60° C.: Total amount of decomposition products: 0.7%
3 months, p-toluenesulfonate
  Amount (%) of suplatast tosilate decomposition products produced at 60° C.: Decomposition product 1: 0.9%
  Amount (%) of suplatast tosilate decomposition products produced at 60° C.: Decomposition product 2: 0.3%
  Amount (%) of suplatast tosilate decomposition products produced at 60° C.: Decomposition product 3: 0.3%
  Amount (%) of suplatast tosilate decomposition products produced at 60° C.: Total amount of decomposition products: 1.5%

## CCOCC(O)COc1ccc(NC(=O)CC[S+](C)C)cc1.Cc1ccc(S(=O)(=O)[O-])cc1 (racemic) [Second-form crystals (ref.), (±)-[2-[4-(3-ethoxy-2-hydroxypropoxy)phenylcarbamoyl]ethyl]dimethylsulfonium p-toluenesulfonate]
1 month
  Amount (%) of suplatast tosilate decomposition products produced at 60° C.: Decomposition product 2: 0.0%
  Amount (%) of suplatast tosilate decomposition products produced at 60° C.: Decomposition product 3: 0.0%
1 month, p-toluenesulfonate
  Amount (%) of suplatast tosilate decomposition products produced at 60° C.: Decomposition product 1: 0.0%
  Amount (%) of suplatast tosilate decomposition products produced at 60° C.: Total amount of decomposition products: 0.0%
2 months, p-toluenesulfonate
  Amount (%) of suplatast tosilate decomposition products produced at 60° C.: Decomposition product 1: 0.0%
  Amount (%) of suplatast tosilate decomposition products produced at 60° C.: Decomposition product 2: 0.0%
  Amount (%) of suplatast tosilate decomposition products produced at 60° C.: Decomposition product 3: 0.0%
  Amount (%) of suplatast tosilate decomposition products produced at 60° C.: Total amount of decomposition products: 0.0%
3 months, p-toluenesulfonate
  Amount (%) of suplatast tosilate decomposition products produced at 60° C.: Decomposition product 1: 0.1%
  Amount (%) of suplatast tosilate decomposition products produced at 60° C.: Decomposition product 2: 0.1%
  Amount (%) of suplatast tosilate decomposition products produced at 60° C.: Decomposition product 3: 0.0%
  Amount (%) of suplatast tosilate decomposition products produced at 60° C.: Total amount of decomposition products: 0.2%

## CCOCC(O)COc1ccc(NC(=O)CC[S+](C)C)cc1.Cc1ccc(S(=O)(=O)[O-])cc1 (racemic) [First-form crystals Lot E, (±)-[2-[4-(3-ethoxy-2-hydroxypropoxy)phenylcarbamoyl]ethyl]dimethylsulfonium p-toluenesulfonate]
1 month
  Amount (%) of suplatast tosilate decomposition products produced at 60° C.: Decomposition product 2: 0.0%
  Amount (%) of suplatast tosilate decomposition products produced at 60° C.: Decomposition product 3: 0.0%
1 month, p-toluenesulfonate
  Amount (%) of suplatast tosilate decomposition products produced at 60° C.: Decomposition product 1: 0.0%
  Amount (%) of suplatast tosilate decomposition products produced at 60° C.: Total amount of decomposition products: 0.0%
2 months, p-toluenesulfonate
  Amount (%) of suplatast tosilate decomposition products produced at 60° C.: Decomposition product 1: 0.3%
  Amount (%) of suplatast tosilate decomposition products produced at 60° C.: Decomposition product 2: 0.1%
  Amount (%) of suplatast tosilate decomposition products produced at 60° C.: Decomposition product 3: 0.1%
  Amount (%) of suplatast tosilate decomposition products produced at 60° C.: Total amount of decomposition products: 0.5%
3 months, p-toluenesulfonate
  Amount (%) of suplatast tosilate decomposition products produced at 60° C.: Decomposition product 1: 0.9%
  Amount (%) of suplatast tosilate decomposition products produced at 60° C.: Decomposition product 2: 0.2%
  Amount (%) of suplatast tosilate decomposition products produced at 60° C.: Decomposition product 3: 0.3%
  Amount (%) of suplatast tosilate decomposition products produced at 60° C.: Total amount of decomposition products: 1.4%

## CCOCC(O)COc1ccc(NC(=O)CC[S+](C)C)cc1.Cc1ccc(S(=O)(=O)[O-])cc1 (racemic) [Third-form crystals (ref.), (±)-[2-[4-(3-ethoxy-2-hydroxypropoxy)phenylcarbamoyl]ethyl]dimethylsulfonium p-toluenesulfonate]
1 month
  Amount (%) of suplatast tosilate decomposition products produced at 60° C.: Decomposition product 2: 0.0%
  Amount (%) of suplatast tosilate decomposition products produced at 60° C.: Decomposition product 3: 0.0%
1 month, p-toluenesulfonate
  Amount (%) of suplatast tosilate decomposition products produced at 60° C.: Decomposition product 1: 0.0%
  Amount (%) of suplatast tosilate decomposition products produced at 60° C.: Total amount of decomposition products: 0.0%
2 months, p-toluenesulfonate
  Amount (%) of suplatast tosilate decomposition products produced at 60° C.: Decomposition product 1: 0.0%
  Amount (%) of suplatast tosilate decomposition products produced at 60° C.: Decomposition product 2: 0.0%
  Amount (%) of suplatast tosilate decomposition products produced at 60° C.: Decomposition product 3: 0.0%
  Amount (%) of suplatast tosilate decomposition products produced at 60° C.: Total amount of decomposition products: 0.0%
3 months, p-toluenesulfonate
  Amount (%) of suplatast tosilate decomposition products produced at 60° C.: Decomposition product 1: 0.0%
  Amount (%) of suplatast tosilate decomposition products produced at 60° C.: Decomposition product 2: 0.0%
  Amount (%) of suplatast tosilate decomposition products produced at 60° C.: Decomposition product 3: 0.0%
  Amount (%) of suplatast tosilate decomposition products produced at 60° C.: Total amount of decomposition products: 0.0%

## CCOCC(O)COc1ccc(NC(=O)CC[S+](C)C)cc1.Cc1ccc(S(=O)(=O)[O-])cc1 (racemic) [Invention crystals (Ex. 3), (±)-[2-[4-(3-ethoxy-2-hydroxypropoxy)phenylcarbamoyl]ethyl]dimethylsulfonium p-toluenesulfonate]
1 month
  Amount (%) of suplatast tosilate decomposition products produced at 60° C.: Decomposition product 2: 0.0%
  Amount (%) of suplatast tosilate decomposition products produced at 60° C.: Decomposition product 3: 0.0%
1 month, p-toluenesulfonate
  Amount (%) of suplatast tosilate decomposition products produced at 60° C.: Decomposition product 1: 0.0%
  Amount (%) of suplatast tosilate decomposition products produced at 60° C.: Total amount of decomposition products: 0.0%
2 months, p-toluenesulfonate
  Amount (%) of suplatast tosilate decomposition products produced at 60° C.: Decomposition product 1: 0.0%
  Amount (%) of suplatast tosilate decomposition products produced at 60° C.: Decomposition product 2: 0.0%
  Amount (%) of suplatast tosilate decomposition products produced at 60° C.: Decomposition product 3: 0.0%
  Amount (%) of suplatast tosilate decomposition products produced at 60° C.: Total amount of decomposition products: 0.0%
3 months, p-toluenesulfonate
  Amount (%) of suplatast tosilate decomposition products produced at 60° C.: Decomposition product 1: 0.0%
  Amount (%) of suplatast tosilate decomposition products produced at 60° C.: Decomposition product 2: 0.0%
  Amount (%) of suplatast tosilate decomposition products produced at 60° C.: Decomposition product 3: 0.0%
  Amount (%) of suplatast tosilate decomposition products produced at 60° C.: Total amount of decomposition products: 0.0%
